In experiment [1] the test system is carrageenin-induced rat paw edema. Nature of the experiment: Carrageenin-induced rat paw edema antiinflammatory assay. Type of experiment: in vivo. The settings on record: 200 mg/kg of body weight. An excerpt: The compounds of this invention are useful as antiinflammatory agents because of their ability to suppress inflammation in mammals. […] Exp. Biol. Med. III, 544 (1962)].

The subject of the next experiment is central nervous system. Briefly: Mouse observation procedure of S. Irwin, central nervous system depressant effects (tranquilizer). Type of experiment: in vivo. The settings on record: male COBS mice, behavior and reflex depression, muscle relaxation, read-out: minimum effective dose (MED)/Kilogram of body weight. As for the experimental part:
The compounds of the invention are useful as tranquilizers because of their depressant effects on the central nervous system. The depressant effects on the central nervous system were evaluated according to the mouse observation procedure of S. Irwin, Psychopharmacologia, 13, 222 (1968). Male COBS mice are dosed with the drug, and its effects on behavior and reflex depression together with muscle relaxation determined by the degree of deviation from control scores, with activity expressed in terms of minimum effective dose (MED). The effectiveness of compounds of the invention as tranquilizers is illustrated in Table I below.

The next experiment concerns isolated rabbit atrium. Briefly: Isolated rabbit atrium, increase in functional refractory period (antiarrhythmic). The settings on record: Oryctolagus cuniculus; for activation at 20 µM: 2 × 10^-5 molar; for activation at 10 µM: 10^-5 molar; for activation at 1 µM: 10^-6 molar. The protocol:
The compounds of the invention are useful as antiarrhythmic agents because of their ability to alleviate cardiac arrhythmias. […] 198] wherein the compounds effect an increase in the functional refractory period. Compounds are dissolved in Krebs-Henseleit solution, and the percent change in the functional refractory period is monitored with an oscilloscope. […] Similarly at a concentration of 10^-^6 molar 1-(3-dimethylaminopropyl)-2-(p-bromophenyl)-4,5,6,7-tetrahydroindole hydrochloride and 1-(2-methylaminoethyl)-2-phenyl-1,4,5,6,7,8-hexahydrocyclohepta[b]pyrrole hydrochloride each effect a 150% increase in the functional refractory period.

Experiment [2] relates to spontaneous hypertensive rat. Nature of the experiment: Lowering of blood pressure in the spontaneous hypertensive rat, indirect tail cuff method. The settings on record: 100 mg/kg of body weight. In kind it is in vivo. As for the experimental part:
The compounds of this invention are also useful as antihypertensive agents because of their ability to lower blood pressure in mammals. […] 135. For example, at a dose of 100 mg/kg of body weight, the compounds shown in Table III below effect the corresponding decrease in systolic blood pressure.

Where a name gives a salt, the structure may show the parent alone.

In the case of `CC(CN(C)C)n1c(-c2cccc(C(F)(F)F)c2)cc2c1CCCC2` (stereo not shown) [1-(1-methyl-2-dimethylaminoethyl)-2(m-trifluoromethylphenyl)-4,5,6,7-tetrahydroindole . HCl], the inhibition in vivo (in general, how much of the control response was suppressed) at 200 mg/kg in experiment [1] turned out to be 46%.
The same measure, in the same setting: the result for `CNCCn1c(-c2cccc(C(F)(F)F)c2)cc2c1CCCC2` [1-(2-methylaminoethyl)-2-(m-trifluoromethylphenyl)-4,5,6,7-tetrahydroindole] reads 58%.
With `CCN(CC)CCCn1c(-c2ccccc2)cc2c1CCc1ccccc1-2` [1-(3-diethylaminopropyl)-2-phenyl-4,5-dihydrobenz[e]-indole], the minimal effective dose with central nervous system stood at 20 mg/kg.
In the case of `CN(C)CCCn1c(-c2cccc(C(F)(F)F)c2)cc2c1CCCC2` [1-(3-dimethylaminopropyl)-2-(m-trifluoromethylphenyl)-4,5,6,7-tetrahydroindole], the minimal effective dose in the experiment with central nervous system came out at 40 mg/kg.
In turn, `CN(C)CCCn1c(-c2ccc(N)cc2)cc2c1CCCCCC2` [1-(3-dimethylaminopropyl)-2-(p-aminophenyl)-4,5,6,7,8,9-hexahydrocycloocta[b]pyrrole] displayed an inhibition in vivo at 200 mg/kg in experiment [1] of 57%.
`CN(C)CCCn1c(-c2ccc(Cl)cc2)cc2c1CCCC2` [1-(3-dimethylaminopropyl)-2-(p-chlorophenyl)-4,5,6,7-tetrahydroindole]: at 200 mg/kg the inhibition in vivo in experiment [1] was 44%.
Molecule `CN(C)CCn1c(-c2ccccc2)cc2c1CCCC2` [Example 1, 1-(2-dimethylaminoethyl)-2-phenyl-4,5,6,7-tetrahydroindole hydrochloride] displayed an activation at 20 µM in the experiment with isolated rabbit atrium of 25%. In experiment [1], this molecule displayed an inhibition in vivo at 200 mg/kg of 47%.
In the case of `CCNCCn1c(-c2ccccc2)cc2c1CCCC2` [Example 3, 1-(2-ethylaminoethyl)-2-phenyl-4,5,6,7-tetrahydroindole . oxalate], the minimal effective dose with central nervous system is 25 mg/kg.
Still for that read-out and setting: the result for `c1ccc(-c2cc3c(n2CCN2CCNCC2)CCCC3)cc1` [Example 5, 1-[2-(1-piperazinylethyl)]-2-phenyl-4,5,6,7-tetrahydroindole . dioxalate] reads 10 mg/kg.
Turning to `CN(C)CCCn1c(-c2ccccc2)cc2c1CCCC2` [Example 6, 1-(3-dimethylaminopropyl)-2-phenyl-4,5,6,7-tetrahydroindole . HCl], the inhibition in vivo at 200 mg/kg in experiment [1] was found to be 45%.
In the case of `COc1ccc(-c2cc3c(n2CCCN(C)C)CCCC3)cc1.Cl` [Example 11, 1-(3-dimethylaminopropyl)-2-(p-methoxyphenyl)-4,5,6,7-tetrahydroindole hydrochloride], in the experiment on isolated rabbit atrium, the activation at 10 µM stood at 300%. For the same molecule, the minimal effective dose in the experiment with central nervous system is 50 mg/kg. The molecule also returned an inhibition in vivo at 200 mg/kg in experiment [1] of 44%.
As to `CN(C)CCCn1c(-c2ccc(Br)cc2)cc2c1CCCC2` [Example 12, 2-(p-bromophenyl)-1-(3-dimethylaminopropyl)-4,5,6,7-tetrahydroindole hydrochloride], the activation at 1 µM with isolated rabbit atrium was found to be 150%.
Molecule `CNCCn1c(-c2cccc(C(F)(F)F)c2)cc2c1CCCC2` [Example 14] gave an activation at 20 µM in the experiment on isolated rabbit atrium of 200%. Besides, the minimal effective dose with central nervous system worked out at 25 mg/kg.
For `CC(C)NC(C)Cn1c(-c2ccc(Cl)cc2)cc2c1CCCC2.Cl` (stereo not shown) [Example 21, 1-(2-isopropylaminopropyl)-2-(p-chlorophenyl)-4,5,6,7-tetrahydroindole hydrochloride], the minimal effective dose in the experiment with central nervous system turned out to be 50 mg/kg.
`CC(C)N(CCn1c(-c2ccc(O)cc2)cc2c1CCCC2)C(C)C` [Example 23, 1-(2-diisopropylaminoethyl)-2-(p-hydroxyphenyl)-4,5,6,7-tetrahydroindole] returned an inhibition in vivo at 200 mg/kg in experiment [1] of 44%.
In the experiment on isolated rabbit atrium, `CCN(CC)CCn1c(-c2ccccc2)cc2c1CCC(C)C2` (stereo not shown) [Example 24, 1-(2-diethylaminoethyl)-2-phenyl-5-methyl-4,5,6,7-tetrahydroindole hydrochloride] gave an activation at 10 µM of 208%.
As for `CCN(CC)CCn1c(-c2ccccc2)cc2c1CCC(C(C)(C)C)C2.Cl` (stereo not shown) [Example 25, 1-(2-diethylaminoethyl)-2-phenyl-5-(t-butyl)-4,5,6,7-tetrahydroindole hydrochloride], the minimal effective dose in the experiment with central nervous system came to 20 mg/kg. Moreover, in experiment [2], the “decrease in systolic blood pressure” value came to 30 mm Hg.
Consider `CN(C)CCCn1c2c(c(-c3ccccc3)c1-c1ccccc1)CCCC2.O.O=C(O)C(=O)O` [Example 28, 1-(3-dimethylaminopropyl)-2,3-diphenyl-4,5,6,7-tetrahydroindole oxalate monohydrate], for which the minimal effective dose with central nervous system amounted to 25 mg/kg.
As for `CN(C)CCCn1c(-c2ccccc2)cc2c1-c1ccccc1CC2.Cl` [Example 30, 1-(3-dimethylaminopropyl)-2-phenyl-4,5-dihydrobenz[g]indole hydrochloride], the “decrease in systolic blood pressure” value in experiment [2] was 24 mm Hg.
As for `CCN(CC)CCCn1c(-c2ccccc2)cc2c1CCc1ccccc1-2` [Example 32, hydrochloride], 200 mg/kg produced 72% inhibition in vivo in experiment [1]. The “decrease in systolic blood pressure” value in experiment [2] worked out at 40 mm Hg.
Regarding `CNCCCn1c(-c2ccccc2)cc2c1CCC2.O=C(O)C(=O)O` [Example 34, 1-(3-methylaminopropyl)-2-phenyl-1,4,5,6-tetrahydrocyclopenta[b]pyrrole oxalate], in the experiment on central nervous system, the minimal effective dose was 25 mg/kg.
Turning to `CN(C)CCCn1c(-c2ccccc2)cc2c1CCC2.Cl` [Example 35, 1-(3-dimethylaminopropyl)-2-phenyl-1,4,5,6-tetrahydrocyclopenta[b]pyrrole hydrochloride], the activation at 20 µM in the experiment with isolated rabbit atrium is 233%. The minimal effective dose with central nervous system was determined as 50 mg/kg.
With `CNCCn1c(-c2ccccc2)cc2c1CCCCC2.Cl` [Example 36, 1-(2-methylaminoethyl)-2-phenyl-1,4,5,6,7,8-hexahydrocyclohepta[b]pyrrole hydrochloride], the activation at 1 µM in the experiment with isolated rabbit atrium turned out to be 150%. Also, in the experiment with central nervous system, the minimal effective dose worked out at 50 mg/kg.
With `CN(C)CCn1c(-c2ccccc2)cc2c1CCCCC2` [Example 37, 1-(2-dimethylaminoethyl)-2-phenyl-1,4,5,6,7,8-hexahydrocyclohepta[b]pyrrole . HCl], in experiment [2], the “decrease in systolic blood pressure” value was determined as 45 mm Hg.
`CC(CN(C)C)n1c(-c2ccccc2)cc2c1CCCCC2` (stereo not shown) [Example 38, 1-(1-methyl-2-dimethylaminoethyl)-2-phenyl-1,4,5,6,7,8-hexahydrocyclohepta[b]pyrrole . oxalate]: in the experiment on central nervous system, the minimal effective dose was 6 mg/kg. At 200 mg/kg the inhibition in vivo in experiment [1] was 58%.
As to `CC(C)NCCCn1c(-c2ccccc2)cc2c1CCCCC2` [Example 43, 1-(3-isopropylaminopropyl)-2-phenyl-1,4,5,6,7,8-hexahydrocyclohepta[b]pyrrole . oxalate], the minimal effective dose with central nervous system came to 37 mg/kg.
Still for that read-out and setting: the result for `CNCCCn1c(-c2ccc(OC)cc2)cc2c1CCCCC2.O=C(O)C(=O)O` [Example 49, 1-(3-methylaminopropyl)-2-(p-methoxyphenyl)-1,4,5,6,7,8-hexahydrocyclohepta[b]-pyrrole oxalate] reads 10 mg/kg; that for `COc1cc(-c2cc3c(n2CCCN(C)C)CCCCC3)cc(OC)c1OC.Cl` [Example 54, 1-(3-dimethylaminopropyl)-2-(3,4,5-trimethoxyphenyl)-1,4,5,6,7,8-hexahydrocyclohepta[b]pyrrole hydrochloride], 50 mg/kg.
For `CN(C)CCCn1c(-c2ccc(F)cc2)cc2c1CCCCC2.Cl` [Example 55, 1-(3-dimethylaminopropyl)-2-(p-fluorophenyl)-1,4,5,6,7,8-hexahydrocyclohepta[b]pyrrole hydrochloride], the minimal effective dose in the experiment with central nervous system stood at 50 mg/kg.
Take `CN(C)CCCn1c(-c2ccccc2)cc2c1CCCCCC2.Cl` [Example 56, 1-(3-dimethylaminopropyl)-2-phenyl-4,5,6,7,8,9-hexahydrocycloocta[b]pyrrole hydrochloride]: the “decrease in systolic blood pressure” value in experiment [2] came out at 50 mm Hg.
In the case of `CCNCCn1c(-c2ccccc2)cc2c1CCCCCC2.O=C(O)C(=O)O` [Example 57, 1-(2-ethylaminoethyl)-2-phenyl-4,5,6,7,8,9-hexahydrocycloocta[b]pyrrole oxalate], the minimal effective dose with central nervous system was 25 mg/kg.
Take `CN(C)CCCn1c(-c2ccc([N+](=O)[O-])cc2)cc2c1CCCCCC2` [Example 58, 1-(3-dimethylaminopropyl)-2-(p-nitrophenyl)-4,5,6,7,8,9-hexahydrocycloocta[b]-pyrrole hydrochloride]: in the experiment on isolated rabbit atrium, the activation at 10 µM was found to be 125%.
`CN(C)CCCn1c(-c2ccc(N)cc2)cc2c1CCCCCC2.O.O=C(O)C(=O)O.O=C(O)C(=O)O` [Example 59, 1-(3-dimethylaminopropyl)-2-(p-aminophenyl)-4,5,6,7,8,9-hexahydrocycloocta[b]pyrrole dioxalate monohydrate]: the minimal effective dose in the experiment on central nervous system turned out to be 25 mg/kg.
Turning to `CN(C)CCCn1c(-c2ccc(F)cc2)cc2c1CCCCCC2` [Example 60, 1-(3-dimethylaminopropyl)-2-(p-fluorophenyl)-4,5,6,7,8,9-hexahydrocycloocta[b]pyrrole oxalate], in the experiment on isolated rabbit atrium, the activation at 10 µM stood at 139%.

(Values after patent publication US3997557A, “Substituted N-aminoalkylpyrroles” (American Hoechst Corporation, priority 1974, dated 1976).)
